Data as given in patent publication US20050239733A1, “Sequence requirements for inhibitory oligonucleotides” (Coley Pharmaceutical GmbH, priority 2003, published 2005).

Molecular target: T1, human TLR9 (Homo sapiens, UniProt Q9NR96)
T1 sequence (Q9NR96 26-1032): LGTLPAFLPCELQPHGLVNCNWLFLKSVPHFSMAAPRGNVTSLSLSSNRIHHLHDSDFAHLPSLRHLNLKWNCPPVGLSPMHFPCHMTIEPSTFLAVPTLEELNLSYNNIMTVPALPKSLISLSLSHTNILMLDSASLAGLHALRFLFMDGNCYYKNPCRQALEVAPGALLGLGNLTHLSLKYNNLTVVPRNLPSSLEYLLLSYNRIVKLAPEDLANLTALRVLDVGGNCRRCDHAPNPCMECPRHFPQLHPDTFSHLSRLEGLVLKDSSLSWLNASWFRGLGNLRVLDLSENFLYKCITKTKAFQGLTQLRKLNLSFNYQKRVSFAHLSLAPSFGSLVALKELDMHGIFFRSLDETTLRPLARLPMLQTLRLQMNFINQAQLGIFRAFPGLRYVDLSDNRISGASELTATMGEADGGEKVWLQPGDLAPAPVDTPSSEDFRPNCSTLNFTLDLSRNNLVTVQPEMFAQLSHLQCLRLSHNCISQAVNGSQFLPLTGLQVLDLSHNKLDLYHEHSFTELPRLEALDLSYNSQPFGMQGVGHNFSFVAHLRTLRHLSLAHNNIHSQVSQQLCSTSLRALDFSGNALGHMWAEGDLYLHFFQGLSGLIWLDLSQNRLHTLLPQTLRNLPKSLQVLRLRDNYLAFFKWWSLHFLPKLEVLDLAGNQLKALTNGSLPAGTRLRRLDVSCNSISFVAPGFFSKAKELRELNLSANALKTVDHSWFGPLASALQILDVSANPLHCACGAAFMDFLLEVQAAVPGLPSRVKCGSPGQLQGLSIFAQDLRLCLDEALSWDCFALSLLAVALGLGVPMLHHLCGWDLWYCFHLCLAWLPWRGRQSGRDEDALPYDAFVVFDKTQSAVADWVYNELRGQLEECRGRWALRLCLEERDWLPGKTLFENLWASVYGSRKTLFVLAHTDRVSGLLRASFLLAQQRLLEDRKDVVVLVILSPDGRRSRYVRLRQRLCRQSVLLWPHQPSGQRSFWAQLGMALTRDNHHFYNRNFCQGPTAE
Assay: Inhibition of CpG ODN 2006-mediated NF-κB-luciferase activation in hTLR9-LUC-293 cells
Settings: for inhibition of hTLR9 (CpG ODN 2006-mediated luciferase activity), in words: 0.156 μM CpG ODN 2006, increasing ODN, 16 h; for Percent 2006 Activity: equimolar 0.156 μM CpG ODN 2006 and inhibitory ODN

[1] = Table 2 (5′ CC replaced by other dinucleotides)
[2] = Table 1 (length b / Spacer 18 variants)

Sequence | Percent 2006 Activity [1] | other results
NNNNNNNNNNNNNN [ODN 605, reference compound] | – | inhibition of hTLR9 (CpG ODN 2006-mediated luciferase activity), in words: not
TAATGGCGGGGAAGT (DNA, backbone and methylation of C not given here) [ODN 959] | 92% | –
TACTGGCGGGGAAGT (DNA, backbone and methylation of C not given here) [ODN 074] | 132% | –
TAGTGGCGGGGAAGT (DNA, backbone and methylation of C not given here) [ODN 441] | 105% | –
TATTGGCGGGGAAGT (DNA, backbone and methylation of C not given here) [ODN 442] | 101% | –
TCATGGCGGGGAAGT (DNA, backbone and methylation of C not given here) [ODN 073] | 114% | –
TCCAGGCGGGGAAGT (DNA, backbone and methylation of C not given here) [ODN 157] | – | Percent 2006 Activity (Table 3 (nucleotides flanking 5′ CC, truncations)): 14%
TCCTGGCGGGGAA (DNA, backbone and methylation of C not given here) [ODN 969] | – | inhibition of hTLR9 (CpG ODN 2006-mediated luciferase activity), in words: inhibited
TCCTGLGGGGAAGT (Spacer 18 hexaethyleneglycol spacer, as printed in the source, key not given here) [ODN 493] | – | Percent 2006 Activity [2]: 54%
TCCTGLLGGGGAAGT (two Spacer 18 hexaethyleneglycol spacers, as printed in the source, key not given here) [ODN 492] | – | Percent 2006 Activity [2]: 67%
TCCTGTGTGTGTGTCGGGGAAGT (listed as DNA, chemistry not given here) [ODN 494] | – | Percent 2006 Activity [2]: 47%
TCCTGTGTGTGTGTGTCGGGGAAGT (listed as DNA, chemistry not given here) [ODN 495] | – | Percent 2006 Activity [2]: 34%
TCGTGGCGGGGAAGT (DNA, backbone and methylation of C not given here) [ODN 435] | 77% | –
TCTTGGCGGGGAAGT (DNA, backbone and methylation of C not given here) [ODN 437] | 89% | –
TGGTGGCGGGGAAGT (DNA, backbone and methylation of C not given here) [ODN 436] | 90% | –
TTATGGCGGGGAAGT (DNA, backbone and methylation of C not given here) [ODN 439] | 91% | –
TTCTGGCGGGGAAGT (DNA, backbone and methylation of C not given here) [ODN 440] | 90% | –
TTGTGGCGGGGAAGT (DNA, backbone and methylation of C not given here) [ODN 438] | 95% | –
TTTTGGCGGGGAAGT (DNA, backbone and methylation of C not given here) [ODN 072] | 121% | –
